Earlier results, collected in patent US20140012157A1, “Monobody Sensors for Monitoring Neuromuscular Blockade” (priority 2007, published 2014).

Columns and labels:
[1] = manufacturer's recommended intubation dose
[2] = PTC of 1 measured; from t=18.8−6.46√PTC
[3] = test system: isolated cat anterior tibialis and sartorius muscles

Compound	2×ED 95 dose (double the dose that is effective for 95% of the population) [1] [mg/kg]	time until return of the TOF [2] [min]	receptors that had to be blocked by the antagonist before block was noticeable [3] [%]	receptors that had to be blocked for near complete blockade [3] [%]
C=CC[N+]1([C@H]2C[C@H]3[C@@H]4CC[C@H]5C[C@H](O)[C@@H](N6CCOCC6)C[C@]5(C)[C@H]4CC[C@]3(C)[C@H]2OC(C)=O)CCCC1 [rocuronium]	0.6	12.34		
COc1cc2c3cc1Oc1cc(ccc1O)C[C@@H]1c4c(cc(OC)c(O)c4Oc4ccc(cc4)C[C@@H]3N(C)CC2)CC[N+]1(C)C [tubocurarine]			76	92
